Experimental findings from patent US10668047B2, “Aziridine containing DNA alkylating agents” (priority 2015, dated 2020) are described below.

This experiment has as its system H460 non-cell lung cancer human tumor cell line. Put plainly: In vitro human tumor cell line cytotoxicity (proliferation) assay, AlamarBlue. The class given is cell-based. On the procedure:
IC50 values are reported in micromolar and result from exposure of compound at various concentrations for 2 hrs followed by a wash step and addition of fresh media followed by growth and cell viability staining and comparison to a media only treated control.
Specifically, exponentially growing cells are seeded at a density of 4×10^3 cells per well in a 96 well plate and incubated at 37° C. in 5% CO2, 95% air and 100% relative humidity for 24 hours prior to addition of test compounds. Compounds are solubilized in 100% DMSO at 200 times the desired final test concentration. At the time of drug addition, compounds are further diluted to 4 times the desired final concentration with complete medium. Aliquots of 50 μl of compound at specified concentrations are added to microtiter wells already containing 150 μl of medium, resulting in the final drug concentration reported. After drug addition, the plates are incubated for an additional 2 hours at 37° C., 5% CO2, 95% air, and 100% relative humidity, then the drug is washed off and fresh medium is added and the plates are incubated for addition 70 hrs at 37° C., 5% CO2, 95% air and 100% relative humidity. At the end of this incubation, the viable cells are quantified using the AlamarBlue assay. The drug concentration resulting in growth inhibition of 50% (IC50) is calculated using Prism software (Irvine, Calif.), and the results are listed in the table.

[1] abbreviates: Homo sapiens, NCI-H460, H460 cells, under air, 2 hrs exposure, wash, then 70 hrs growth, read-out: IC50 (air).
Setting [2] is: Homo sapiens, NCI-H460, H460 cells, under nitrogen, 2 hrs exposure, wash, then 70 hrs growth, read-out: IC50 (N2).
The mark [3] stands for this setting: Homo sapiens, NCI-H460, read-out: IC50 (N2), H460 cells, under nitrogen, 2 hrs exposure, wash, then 70 hrs growth.
Setting [4] is: Homo sapiens, NCI-H460, read-out: IC50 (air), H460 cells, under air, 2 hrs exposure, wash, then 70 hrs growth.

Where two headings read alike, the source gives them in different places.

For `O=[N+]([O-])c1ccccc1C(OP(=O)(N1CC1)N1CC1)c1ccccc1` (stereo not shown) [compound 2563], the IC50 was found to be 15 µM under setting [1] and 3.2 µM under setting [2].
For `CC(OP(=O)(N1CC1)N1CC1)c1ccc([N+](=O)[O-])c(-c2cccs2)c1` (stereo not shown) [compound 2783], the IC50 is, setting by setting: under setting [1], 51 µM; under setting [2], 1.7 µM.
`Cn1c([N+](=O)[O-])nc(CCN2CCOCC2)c1C(OP(=O)(N1CC1)N1CC1)C(F)(F)F` (stereo not shown) [compound 2147]: the half-maximal inhibitory concentration (IC50) reads like this: under setting [1], 310 µM; under setting [2], 1.1 µM.
For `CC(OP(=O)(N1CC1)N1CC1)c1ccc([N+](=O)[O-])c(-n2nccn2)c1` (stereo not shown) [compound 2771], in that order: 14 µM and 0.03 µM.
For the molecule `CCCCCCCCN(C)c1cc(C(C)OP(=O)(N2CC2)N2CC2)ccc1[N+](=O)[O-]` (stereo not shown) [compound 2735], the IC50 under setting [1] amounted to 3.1 µM and the IC50 under setting [2] is 2 µM.
For `Cn1c([N+](=O)[O-])cnc1C(OP(=O)(N1CC1)N1CC1)C1CC1` (stereo not shown) [compound 2520] the same measures were 20 µM and 8.8 µM.
As for `CC(OP(=O)(N1CC1)N1CC1)c1ccc([N+](=O)[O-])c(N2CCC(O)CC2)c1` (stereo not shown) [compound 2752], the IC50 reads like this: under setting [1], 270 µM; under setting [2], 5.7 µM.
For `CCN(CC)c1cc(C(C)OP(=O)(N2CC2)N2CC2)ccc1[N+](=O)[O-]` (stereo not shown) [compound 2701], in that order: 66 µM and 1.3 µM.
For `CC(OP(=O)(N1CC1)N1CC1)c1ccc([N+](=O)[O-])c(N(C)C)c1` (stereo not shown) [compound 2680], in that order: 110 µM and 2.6 µM.
As for `CC(OP(=O)(N1CC1)N1CC1)c1ccc([N+](=O)[O-])cc1` (stereo not shown) [compound 2537], the IC50 under setting [3] is 0.3 µM and the IC50 under setting [4] worked out at 53 µM.
With `CCCC(OP(=O)(N1CC1)N1CC1)c1c(C)cccc1[N+](=O)[O-]` (stereo not shown) [compound 2610], the IC50 came to 350 µM under setting [1] and 51 µM under setting [2].
For `CC(OP(=O)(N1CC1)N1CC1)c1cc(-n2cnc(CO)c2)c([N+](=O)[O-])cc1F` (stereo not shown) [compound 2760] the same measures were 53 µM and 2.4 µM.
For `O=[N+]([O-])c1ccc(COP(=O)(N2CC2)N2CC2)cc1Cl` [compound 2579], the IC50 by setting is: under setting [1], 2.6 µM; under setting [2], 1.3 µM.
Take `CC(OP(=O)(N1CC1)N1CC1)c1cc(-n2nnc3ccccc32)c([N+](=O)[O-])cc1F` (stereo not shown) [compound 2787]: the IC50 under setting [1] is 2.3 µM and the IC50 under setting [2] amounted to 0.02 µM.
As to `CC(OP(=O)(N1CC1)N1CC1)c1ccc([N+](=O)[O-])c(Nc2ccc([N+](=O)[O-])cc2)c1` (stereo not shown) [compound 2697], the concentration for half-maximal inhibition (IC50) reads like this: under setting [3], 0.5 µM; under setting [4], 1.5 µM.
With `CC(OP(=O)(N1CC1)N1CC1)c1c([N+](=O)[O-])ncn1C` (stereo not shown) [compound 2560], the IC50 runs as follows: under setting [1], 40 µM; under setting [2], 3.7 µM.
Regarding `CC(OP(=O)(N1CC1)N1CC1)c1ncc([N+](=O)[O-])n1C` (stereo not shown) [compound 2501], the IC50 amounted to 21 µM under setting [1] and 0.05 µM under setting [2].
For `CC(OP(=O)(N1CC1)N1CC1)c1ccc([N+](=O)[O-])c(OCC(F)(F)F)c1` (stereo not shown) [compound 2698], in that order: 3.7 µM and 1.6 µM.
For `COc1ccc(C(C)OP(=O)(N2CC2)N2CC2)c([N+](=O)[O-])c1` (stereo not shown) [compound 2616], in that order: 17 µM and 3.7 µM.
For `Cn1c([N+](=O)[O-])cnc1C(OP(=O)(N1CC1)N1CC1)C1CCCCC1` (stereo not shown) [compound 2633], in that order: 83 µM and 0.3 µM.
For the molecule `CC(OP(=O)(N1CC1)N1CC1)c1cc(-n2cnc([N+](=O)[O-])c2)c([N+](=O)[O-])cc1F` (stereo not shown) [compound 2742], the IC50 under setting [3] was 0.1 µM and the IC50 under setting [4] turned out to be 3 µM.
For `CC(OP(=O)(N1CC1)N1CC1)c1ccc([N+](=O)[O-])c(N(C)CCN2CCOCC2)c1` (stereo not shown) [compound 2757] the same measures were 3.8 µM and 380 µM.
For the molecule `O=[N+]([O-])c1ccc(C(CC(F)(F)F)OP(=O)(N2CC2)N2CC2)cc1` (stereo not shown) [compound 2690], the IC50 reads like this: under setting [1], 99 µM; under setting [2], 3.2 µM.
Consider `O=[N+]([O-])c1cnc(COP(=O)(N2CC2)N2CC2)n1C1CCCC1` [compound 2635], for which the IC50 reads like this: under setting [1], 13 µM; under setting [2], 0.22 µM.
For `O=[N+]([O-])c1ccc(COP(=O)(N2CC2)N2CC2)c(-c2ccccc2)c1` [compound 2626] the same measures were 3.3 µM and 0.6 µM.
`Cn1c([N+](=O)[O-])nc(-c2cc(Cl)c(Cl)s2)c1COP(=O)(N1CC1)N1CC1` [compound 2525]: the IC50 amounted to 0.7 µM under setting [1] and 0.02 µM under setting [2].
For `CC(C)(C)[Si](C)(C)OCCC(OP(=O)(N1CC1)N1CC1)c1ccc([N+](=O)[O-])cc1` (stereo not shown) [compound 2712] the same measures were 0.3 µM and 0.2 µM.
For `CC(OP(=O)(N1CC1)N1CC1)c1ccc([N+](=O)[O-])c(-n2ccnc2Cl)c1` (stereo not shown) [compound 2765], the IC50 was 8.1 µM under setting [1] and 0.03 µM under setting [2].
For `CC(OP(=O)(N1CC1)N1CC1)c1ccc([N+](=O)[O-])c(C(F)(F)F)c1` (stereo not shown) [compound 2613], in that order: 26 µM and 0.3 µM.
For `CC(OP(=O)(N1CC1)N1CC1)c1ccc([N+](=O)[O-])c(-c2ccc(C#N)cc2)c1` (stereo not shown) [compound 2775], in that order: 2.5 µM and 0.3 µM.
Take `CC(OP(=O)(N1CC1)N1CC1)c1ccc([N+](=O)[O-])c(-c2ccccc2F)c1` (stereo not shown) [compound 2786]: the half-maximal inhibitory concentration (IC50) by setting is: under setting [1], 69 µM; under setting [2], 2.5 µM.
For `CC(OP(=O)(N1CC1)N1CC1)c1ccc([N+](=O)[O-])c(N2CCN(Cc3cnc([N+](=O)[O-])n3C)CC2)c1` (stereo not shown) [compound 2756], the concentration for half-maximal inhibition (IC50) came to 2.8 µM under setting [3] and 45 µM under setting [4].
`CC(OP(=O)(N1CC1)N1CC1)c1ccc([N+](=O)[O-])c(N2CCOCC2)c1` (stereo not shown) [compound 2695]: the IC50 is 130 µM under setting [1] and 4.2 µM under setting [2].
On to `CC(OP(=O)(N1CC1)N1CC1)c1ccc([N+](=O)[O-])c(-n2cnc3ccccc32)c1` (stereo not shown) [compound 2737], for which the IC50 under setting [1] stood at 21 µM and the IC50 under setting [2] worked out at 0.2 µM.
For `O=[N+]([O-])c1ccccc1COP(=O)(N1CC1)N1CC1` [compound 2578] the same measures were 28 µM and 6 µM.
For `O=[N+]([O-])c1ccc(COP(=O)(N2CC2)N2CC2)c(Br)c1` [compound 2608] the same measures were 3.1 µM and 0.3 µM.
Turning to `O=[N+]([O-])c1ccc2c(c1)CCC2OP(=O)(N1CC1)N1CC1` (stereo not shown) [compound 2652], the IC50 reads like this: under setting [1], 2.2 µM; under setting [2], 0.02 µM.
For `CCCC(OP(=O)(N1CC1)N1CC1)c1ccc([N+](=O)[O-])cc1OC` (stereo not shown) [compound 2595] the same measures were 3.2 µM and 0.2 µM.
Regarding `C#Cc1cc(C(C)OP(=O)(N2CC2)N2CC2)ccc1[N+](=O)[O-]` (stereo not shown) [compound 2792], the IC50 is 3.7 µM under setting [1] and 0.2 µM under setting [2].
For `COc1cccc([N+](=O)[O-])c1COP(=O)(N1CC1)N1CC1` [compound 2637] the same measures were 23 µM and 0.8 µM.
For `CC(OP(=O)(N1CC1)N1CC1)c1ccc([N+](=O)[O-])c(N2CCC(c3ccccc3)CC2)c1` (stereo not shown) [compound 2750], in that order: 23 µM and 2.4 µM.
On to `CC(OP(=O)(N1CC1)N1CC1)c1ccc([N+](=O)[O-])c(N(C)O)c1` (stereo not shown) [compound 2707], for which the IC50 by setting is: under setting [1], 0.2 µM; under setting [2], 0.1 µM.
Turning to `CC(C)C(OP(=O)(N1CC1)N1CC1)c1ncc([N+](=O)[O-])n1C` (stereo not shown) [compound 2567], the IC50 is, setting by setting: (H460 cells, under air, 2 hrs exposure, wash, then 70 hrs growth, read-out: IC50 (air)) 270 µM; (H460 cells, under nitrogen, 2 hrs exposure, wash, then 70 hrs growth, read-out: IC50 (N2)) 0.3 µM.
With `Cn1c([N+](=O)[O-])cnc1COP(=O)(N1CC1)N1CC1` [compound 2136], the IC50 under setting [1] was 24 µM and the half-inhibitory concentration (IC50) under setting [2] is 0.1 µM.
Consider `COc1cc([N+](=O)[O-])ccc1COP(=O)(N1CC1)N1CC1` [compound 2554], for which the IC50 reads like this: under setting [1], 3 µM; under setting [2], 0.1 µM.
For `CC(=O)OCC(OP(=O)(N1CC1)N1CC1)c1ccc([N+](=O)[O-])cc1` (stereo not shown) [compound 2686], in that order: 79 µM and 3.1 µM.
For `CC(OP(=O)(N1CC1)N1CC1)c1ccc([N+](=O)[O-])c(-n2nnc3ccccc32)c1` (stereo not shown) [compound 2777], in that order: 3.4 µM and 0.01 µM.
`Cc1ccc(COP(=O)(N2CC2)N2CC2)c([N+](=O)[O-])c1` [compound 2590]: the IC50 came to 15 µM under setting [1] and 2.9 µM under setting [2].
`CC(C)n1c([N+](=O)[O-])cnc1COP(=O)(N1CC1)N1CC1` [compound 2627]: the IC50 was 32 µM under setting [1] and 0.5 µM under setting [2].
With `Cn1c([N+](=O)[O-])cnc1C(OP(=O)(N1CC1)N1CC1)C1CCCC1` (stereo not shown) [compound 2561], the IC50 stood at 29 µM under setting [1] and 0.2 µM under setting [2].
